The source of these data is patent US10106552B2, “Compounds inhibiting eukaryotic elongation factor 2 kinase activity” (Longevica Pharmaceuticals, Inc., priority 2013, dated 2018).

Broadly, the IC50 is the concentration needed to halve the response being measured.

This experiment deals with recombinant eEF2K (Homo sapiens (Human), UniProt O00418). Kind of experiment: eEF2K Kinase-Glo luminescent kinase assay (ATP consumption, peptide substrate). It counts as biochemical. The note with it: average of two to four separate experimental measurements, each the average of three replicates. Here is the method: The following compounds were synthesized using the general methods described above. In the table below, IC50 values are in μM and are the average of two to four separate experimental measurements, each consisting in turn of the average of three replicates. IC50 values were calculated using the methods as described in Example 2. MW was determined by mass spectroscopy analysis, and is expressed as M+1.
To determine the IC50 of compounds of the invention, recombinant eEF2K was diluted in an assay buffer in the presence of calmodulin, a calcium-binding messenger protein expressed in eukaryotic cells, and incubated with peptide substrate Ac-RKKYKFNEDTERRRFL in the presence of Adenosine-5′-triphosphate (ATP) and the test compound. The peptide substrate is efficiently and specifically phosphorylated by eEF2K at a single substrate concentration of 100 μM. Using this peptide, eEF2K activity can be quantitatively determined using a Kinase-Glo® luminescent kinase assay kit (Promega) that measures ATP consumption by EF2K during phosphorylation of the substrate. ATP conversion was recorded using Perkin-Elmer Victor Luminometer. Data was plotted using GraphPad software and IC50 was calculated using 3-parameter sigmoidal curve fit.
On the technique in general: Kinase-Glo measures the ATP left after a reaction by luminescence.
`CC1(C)CCc2c1nc1sc(C(N)=O)c(N)c1c2-c1cncs1` [Compound 28, 3-Amino-7,7-dimethyl-4-thiazol-5-yl-6,7-dihydro-5H-1-thia-8-aza-s-indacene-2-carboxylic acid amide]: the IC50 is 0.4 µM.
Regarding `CC1(C)CCc2nc3sc(C(N)=O)c(N)c3c(-c3ccco3)c2C1` [Compound 6, 3-Amino-4-furan-2-yl-6,6-dimethyl-5,6,7,8-tetrahydro-thieno[2,3-b]quinoline-2-carboxylic acid amide], the IC50 is 1.2 µM.
For `NC(=O)c1sc2nc3c(c(-c4ccc(Cl)o4)c2c1N)CC(c1ccccc1)CC3` (stereo not drawn) [Compound 4, 3-Amino-4-(5-chloro-furan-2-yl)-6-phenyl-5,6,7,8-tetrahydro-thieno[2,3-b]quinoline-2-carboxylic acid amide], the IC50 stood at 10000 µM.
As to `NC(=O)c1sc2nc3c(c(-c4cncs4)c2c1N)C1CCC3C1` (stereo not drawn) [Compound 43], the IC50 amounted to 0.9 µM.
The result for `Cc1csc(-c2c3c(nc4sc(C(N)=O)c(N)c24)C(C)(C)CC3)n1` [Compound 32, 3-Amino-7,7-dimethyl-4-(4-methyl-thiazol-2-yl)-6,7-dihydro-5H-1-thia-8-aza-s-indacene-2-carboxylic acid amide] reads 3.8 µM; that for `CC1(C)CCCc2c1nc1sc(C(N)=O)c(N)c1c2-c1cncs1` [Compound 38, 3-Amino-8,8-dimethyl-4-thiazol-5-yl-5,6,7,8-tetrahydro-thieno[2,3-b]quinoline-2-carboxylic acid amide], 0.3 µM; that for `CC1(C)CCCc2c1nc1sc(C(N)=O)c(N)c1c2-c1ccc(Cl)o1` [Compound 8, 3-Amino-4-(5-chloro-furan-2-yl)-8,8-dimethyl-5,6,7,8-tetrahydro-thieno[2,3-b]quinoline-2-carboxylic acid amide], 4.7 µM.
The result for `CC1(C)CCc2c1nc1sc(C(N)=O)c(N)c1c2-c1cscn1` [Compound 30, 3-Amino-7,7-dimethyl-4-thiazol-4-yl-6,7-dihydro-5H-1-thia-8-aza-s-indacene-2-carboxylic acid amide] reads 3.4 µM.
Then `CCCC1C/C(=C\c2ccc(Cl)o2)c2nc3sc(C(N)=O)c(N)c3c(-c3ccc(Cl)o3)c2C1` (stereo not drawn) [Compound 5, 3-Amino-4-(5-chloro-furan-2-yl)-8-(5-chloro-furan-2-ylmethylene)-6-propyl-5,6,7,8-tetrahydro-thieno[2,3-b]quinoline-2-carboxylic acid amide], with 6 µM; and `CC1(C)C/C(=C\c2ccoc2)c2nc3sc(C(N)=O)c(N)c3c(-c3ccoc3)c2C1` [Compound 22, 3-Amino-4-furan-3-yl-8-furan-3-ylmethylene-6,6-dimethyl-5,6,7,8-tetrahydro-thieno[2,3-b]quinoline-2-carboxylic acid amide], with 6 µM; and `Cc1ncsc1-c1c2c(nc3sc(C(N)=O)c(N)c13)C(C)(C)CC2` [Compound 40, 3-Amino-7,7-dimethyl-4-(4-methyl-thiazol-5-yl)-6,7-dihydro-5H-1-thia-8-aza-s-indacene-2-carboxylic acid amide], with 0.4 µM.
Regarding `CC1(C)CCc2c1nc1sc(C(N)=O)c(N)c1c2-c1ccc(Cl)o1` [Compound 9, 3-Amino-4-(5-chloro-furan-2-yl)-7,7-dimethyl-6,7-dihydro-5H-1-thia-8-aza-s-indacene-2-carboxylic acid amide], the IC50 turned out to be 2.4 µM.
Then `CC1(C)CCc2c(nc3sc(C(N)=O)c(N)c3c2-c2ccco2)C1` [Compound 10, 3-Amino-4-furan-2-yl-7,7-dimethyl-5,6,7,8-tetrahydro-thieno[2,3-b]quinoline-2-carboxylic acid amide], with 1 µM.
The result for `CC1(C)CCc2c1nc1sc(C(N)=O)c(N)c1c2-c1nccs1` [Compound 23, 3-Amino-7,7-dimethyl-4-thiazol-2-yl-6,7-dihydro-5H-1-thia-8-aza-s-indacene-2-carboxylic acid amide] reads 2 µM.
With `NC(=O)c1sc2nc3c(c(-c4ccc(Cl)o4)c2c1N)CCCC3c1ccccc1` (stereo not drawn) [Compound 13, 3-Amino-4-(5-chloro-furan-2-yl)-8-phenyl-5,6,7,8-tetrahydro-thieno[2,3-b]quinoline-2-carboxylic acid amide], the IC50 was 31 µM.
The result for `CC1(C)CCCc2c1nc1sc(C(N)=O)c(N)c1c2-c1cc(Br)co1` [Compound 37, 3-Amino-4-(4-bromo-furan-2-yl)-8,8-dimethyl-5,6,7,8-tetrahydro-thieno[2,3-b]quinoline-2-carboxylic acid amide] reads 0.9 µM; that for `CC1CC(C)(C)Cc2nc3sc(C(N)=O)c(N)c3c(-c3ccc(Cl)o3)c21` (stereo not drawn) [Compound 12, 3-Amino-4-(5-chloro-furan-2-yl)-5,7,7-trimethyl-5,6,7,8-tetrahydro-thieno[2,3-b]quinoline-2-carboxylic acid amide], 5 µM.
Then `CC1(C)CCc2c(nc3sc(C(N)=O)c(N)c3c2-c2ccc(Cl)c(Cl)c2)C1` [Compound 11, 3-Amino-4-(3,4-dichloro-phenyl)-7,7-dimethyl-5,6,7,8-tetrahydro-thieno[2,3-b]quinoline-2-carboxylic acid amide], with 23 µM; and `NC(=O)c1sc2nc3c(c(-c4cncs4)c2c1N)CCCC31CCCC1` [Compound 42], with 3.1 µM.
On to `CC1CC(C)(C)Cc2nc3sc(C(N)=O)c(N)c3c(-c3cncs3)c21` (stereo not drawn) [Compound 36, 3-Amino-5,7,7-trimethyl-4-thiazol-5-yl-5,6,7,8-tetrahydro-thieno[2,3-b]quinoline-2-carboxylic acid amide], for which the IC50 came to 0.4 µM.
Regarding `CC1(C)CCc2nc3sc(C(N)=O)c(N)c3c(-c3ccc(Cl)o3)c2C1` [Compound 2, 3-Amino-4-(5-chloro-furan-2-yl)-6,6-dimethyl-5,6,7,8-tetrahydro-thieno[2,3-b]quinoline-2-carboxylic acid amide], the IC50 is 1.1 µM.
The result for `CC1(C)CCc2c1nc1sc(C(N)=O)c(N)c1c2-c1ccc(Br)s1` [Compound 27, 3-Amino-4-(5-bromo-thiophen-2-yl)-7,7-dimethyl-6,7-dihydro-5H-1-thia-8-aza-s-indacene-2-carboxylic acid amide] reads 1.5 µM; that for `CCC(C)c1c2c(nc3sc(C(N)=O)c(N)c13)C(C)(C)CC2` (stereo not drawn) [Compound 26, 3-Amino-4-sec-butyl-7,7-dimethyl-6,7-dihydro-5H-1-thia-8-aza-s-indacene-2-carboxylic acid amide], 1 µM; that for `CC1(C)CCc2c1nc1sc(C(N)=O)c(N)c1c2-c1ccc(Cl)s1` [Compound 24, 3-Amino-4-(5-chloro-thiophen-2-yl)-7,7-dimethyl-6,7-dihydro-5H-1-thia-8-aza-s-indacene-2-carboxylic acid amide], 1.4 µM.
For `CC1(C)CCc2nc3sc(C(N)=O)c(N)c3c(-c3ccsc3)c2C1` [Compound 20, 3-Amino-6,6-dimethyl-4-thiophen-3-yl-5,6,7,8-tetrahydro-thieno[2,3-b] quinoline-2-carboxylic acid amide], the IC50 was 2.2 µM.
In the case of `Cn1cc(-c2c3c(nc4sc(C(N)=O)c(N)c24)C(C)(C)CC3)cn1` [Compound 29, 3-Amino-7,7-dimethyl-4-(1-methyl-1H-pyrazol-4-yl)-6,7-dihydro-5H-1-thia-8-aza-s-indacene-2-carboxylic acid amide], the IC50 was 0.7 µM.
As to `CC1(C)CCc2c1nc1sc(C(N)=O)c(N)c1c2-c1cc(Br)cs1` [Compound 25, 3-Amino-4-(4-bromo-thiophen-2-yl)-7,7-dimethyl-6,7-dihydro-5H-1-thia-8-aza-s-indacene-2-carboxylic acid amide], the IC50 turned out to be 0.8 µM.
Then `CC1(C)CCc2c1nc1sc(C(N)=O)c(N)c1c2-c1ccsc1` [Compound 18, 3-Amino-7,7-dimethyl-4-thiophen-3-yl-6,7-dihydro-5H-1-thia-8-aza-s-indacene-2-carboxylic acid amide], with 0.9 µM; and `CC1(C)CCc2c(nc3sc(C(N)=O)c(N)c3c2-c2ccc(Cl)o2)C1` [Compound 7, 3-Amino-4-(5-chloro-furan-2-yl)-7,7-dimethyl-5,6,7,8-tetrahydro-thieno[2,3-b]quinoline-2-carboxylic acid amide], with 1.6 µM.
Consider `CC1(C)CCc2c1nc1sc(C(N)=O)c(N)c1c2-c1sccc1Br` [Compound 34, 3-Amino-4-(3-bromo-thiophen-2-yl)-7,7-dimethyl-6,7-dihydro-5H-1-thia-8-aza-s-indacene-2-carboxylic acid amide], for which the IC50 is 0.8 µM.
Then `CC1(C)C/C(=C\c2ccc(Cl)o2)c2nc3sc(C(N)=O)c(N)c3c(-c3ccc(Cl)o3)c2C1` [Compound 1, 3-Amino-4-(5-chloro-furan-2-yl)-8-(5-chloro-furan-2-ylmethylene)-6,6-dimethyl-5,6,7,8-tetrahydro-thieno[2,3-b]quinoline-2-carboxylic acid amide], with 2.7 µM; and `CC1(C)CCc2nc3sc(C(N)=O)c(N)c3c(-c3cncs3)c2C1` [Compound 33, 3-Amino-6,6-dimethyl-4-thiazol-5-yl-5,6,7,8-tetrahydro-thieno[2,3-b]quinoline-2-carboxylic acid amide], with 1.1 µM.
As to `CC1(C)CCc2c1nc1sc(C(N)=O)c(N)c1c2C1CC1` [Compound 19, 3-Amino-4-cyclopropyl-7,7-dimethyl-6,7-dihydro-5H-1-thia-8-aza-s-indacene-2-carboxylic acid amide], the IC50 came out at 1.1 µM.
